Test results published in patent US12377058B1, “Method for inhibiting proliferation of cancer cells” (IMAM MOHAMMAD IBN SAUD ISLAMIC UNIVERSITY, priority 2024, dated 2025).
Values after ≈ are worked out from the molar mass of the structure shown.

What was measured:
Format in all cases: cell-based
[1] = system: A549 lung cancer stem cells; test: cytotoxic IC50 evaluation against A549 cells
Text: (§1) Referring to FIG. 3, cytotoxic inhibitory concentration of 50 (IC50) evaluation of YS3 against various cancer cells is illustrated.

PC3 cancer stem cells = test: cytotoxic IC50 evaluation against PC3 cells
Text: as §1

FaDu cancer stem cells = test: cytotoxic IC50 evaluation against FaDu cells; conditions: Homo sapiens, read from FIG. 3
Text: as §1

[2] = system: MDA-MB-468 cancer stem cells; test: cytotoxic IC50 evaluation against MDA-MB-468 cells; conditions: Homo sapiens, read from FIG. 3
Text: as §1

HELA cancer stem cells = test: cytotoxic IC50 evaluation against HeLa cells
Text: as §1

CCCCCOc1ccc(Oc2ccc(C=O)cc2)cc1 [YS3, 4-(4-(pentoxy)phenoxy)benzaldehyde]
performance compared to doxorubicin (DOX) ([1]; A549 cell line): comparable to DOX | IC50 ([1]; Homo sapiens, A549 lung cancer stem cells, read from FIG. 3): ~5 µg/mL (≈ 17.6 µM) | IC50 (PC3 cancer stem cells; Homo sapiens, PC-3, PC3 cancer stem cells, read from FIG. 3): ~4 µg/mL (≈ 14.1 µM) | performance compared to doxorubicin (DOX) (PC3 cancer stem cells; PC3 cell line): comparable to DOX | IC50 (FaDu cancer stem cells): ~4 µg/mL (≈ 14.1 µM) | IC50 [2]: ~4.5 µg/mL (≈ 15.8 µM) | performance compared to doxorubicin (DOX) (HELA cancer stem cells; HeLa cell line): comparable to DOX | IC50 (HELA cancer stem cells; Homo sapiens, HELA cancer stem cells, read from FIG. 3): ~5 µg/mL (≈ 17.6 µM)
